In one series the target is LSD1 (Homo sapiens (Human), UniProt O60341). The series can be described thus: TR-FRET Assay for LSD1. Conditions: read-out: LSD1 IC50.
Series [1] is described as follows: Metabolic stability in liver microsomes, MLM. Conditions: 1 μM, NADPH.
Experimental: (§1) The microsomal suspension was prepared by adding liver microsomes to 100 mM potassium phosphate buffer (pH7.4) to give a final protein concentration of 0.5 mg/mL. The stock solution of NCE (10 mM in DMSO) was added to the microsomes to provide a final concentration of 1 μM. […] Samples were vortexed and centrifuged at 5,000 rpm for 10 min to remove proteins. Supernatant were analyzed on LC-MS/MS.
Series [2] concerns the target HDAC6 human recombinant enzyme (Homo sapiens (Human), UniProt Q9UBN7). Put plainly: Histone Deacetylase Assay (BPS Biosciences), HDAC6. The series is classed as biochemical. An excerpt: Histone Deacetylase Assay (BPS Biosciences)
Histone deacetylase assay was done as per manufacturer's instructions.

A short description of series [3]: Metabolic stability in liver microsomes, HLM. The note with it: 1 μM, NADPH.
Experimental: as §1
In the next series the test system is MM1S. The series can be described thus: Anticancer activity: Alamar Blue assay, MM1S. The series is classed as cell-based. The note with it: Homo sapiens, MM1.S, read-out: MM1S EC50.

Where a name gives a salt, the structure may show the parent alone. Read-outs that look alike come from different tables or passages of the source.

Chain of HDAC6 human recombinant enzyme (Q9UBN7 whole entry): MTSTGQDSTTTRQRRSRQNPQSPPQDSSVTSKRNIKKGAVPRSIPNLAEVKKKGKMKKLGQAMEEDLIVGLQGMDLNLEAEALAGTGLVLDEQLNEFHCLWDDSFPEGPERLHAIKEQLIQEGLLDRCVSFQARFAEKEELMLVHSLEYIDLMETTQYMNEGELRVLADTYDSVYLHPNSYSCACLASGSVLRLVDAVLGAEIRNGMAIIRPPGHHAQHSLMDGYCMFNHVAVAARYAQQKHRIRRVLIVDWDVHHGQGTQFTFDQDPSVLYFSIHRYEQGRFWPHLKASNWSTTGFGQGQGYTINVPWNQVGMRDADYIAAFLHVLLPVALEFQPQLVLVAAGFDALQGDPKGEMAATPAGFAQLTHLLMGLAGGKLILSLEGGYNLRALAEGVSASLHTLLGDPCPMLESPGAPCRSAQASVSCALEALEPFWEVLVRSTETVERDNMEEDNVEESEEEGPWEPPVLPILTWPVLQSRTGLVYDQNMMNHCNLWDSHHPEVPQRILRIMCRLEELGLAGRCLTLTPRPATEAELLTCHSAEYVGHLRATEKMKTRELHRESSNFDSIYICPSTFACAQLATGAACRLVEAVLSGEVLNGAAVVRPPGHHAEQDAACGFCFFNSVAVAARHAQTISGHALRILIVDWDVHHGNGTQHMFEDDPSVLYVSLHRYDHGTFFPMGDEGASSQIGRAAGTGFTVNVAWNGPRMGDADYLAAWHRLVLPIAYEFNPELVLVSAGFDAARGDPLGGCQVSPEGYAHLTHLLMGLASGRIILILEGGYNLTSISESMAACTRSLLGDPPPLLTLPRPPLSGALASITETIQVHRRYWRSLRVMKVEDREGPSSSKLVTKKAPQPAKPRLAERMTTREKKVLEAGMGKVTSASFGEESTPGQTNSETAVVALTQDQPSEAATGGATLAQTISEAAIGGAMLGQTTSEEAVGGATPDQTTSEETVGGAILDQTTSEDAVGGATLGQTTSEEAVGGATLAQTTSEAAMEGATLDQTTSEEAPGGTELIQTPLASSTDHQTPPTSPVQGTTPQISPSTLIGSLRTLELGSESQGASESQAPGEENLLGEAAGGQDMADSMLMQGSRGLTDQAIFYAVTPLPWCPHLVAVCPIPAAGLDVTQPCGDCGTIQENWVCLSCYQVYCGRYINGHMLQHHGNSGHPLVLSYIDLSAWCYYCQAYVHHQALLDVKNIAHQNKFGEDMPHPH
Experimental for LSD1: TR-FRET Assay for LSD1 (Perkin Elmer)
Tranylcypromine (TCP), LSD1 inhibitor was procured from Selleckchem. […] Stop Solution containing 300 μM tranylcypromine in 1× LANCE Detection Buffer was added to the wells and incubated for 5 min at RT. Then, Detection mix containing 2 nM Eu-Ab and 50 nM ULight-Streptavidin in 1× LANCE Detection Buffer was prepared and added to the reaction mix. This mixture was incubated for 1 hour at room temperature.

On to `O=C(NO)c1cccc(CNC2CC2c2ccccc2)c1` (stereo not drawn) [Example 27, N-hydroxy-3-(((2-phenylcyclopropyl)amino)methyl)benzamide TFA], for which the IC50 was 16 nM on LSD1 and greater than 1000 nM in series [2]. For the same molecule, the “Metabolic stability MLM % remaining in 30 min” value in series [1] was 51%. In addition, the “Metabolic stability HLM % remaining in 30 min” value in series [3] stood at 75%.

`CC(NC1CC1c1ccccc1)[C@H]1CC[C@H](C(=O)NO)CC1` (stereo partly drawn) [Example 34, (1S,4R)—N-hydroxy-4-((1S)-1-((2-phenylcyclopropyl)amino)ethyl)cyclohexanecarboxamide TFA Salt]: the concentration for a half-maximal effect (EC50) with MM1S (MM1S cells) turned out to be 94 nM. In addition, the IC50 on LSD1 was 31 nM; in series [2], greater than 1000 nM. Besides, the “Metabolic stability MLM % remaining in 30 min” value in series [1] is given as 79%. Besides, in series [3], the “Metabolic stability HLM % remaining in 30 min” value is 90%.

For the molecule `O=C(NO)c1ccc(CCCN2CCC(NC3CC3c3ccccc3)CC2)cc1` (stereo not drawn) [Example 44, N-hydroxy-4-(3-(4-((2-phenylcyclopropyl)amino)piperidin-1-yl)propyl)benzamide TFA Salt], in the series with MM1S, the EC50 came out at 45 nM. In addition, the IC50 at LSD1 worked out at 13 nM; in series [2], 65 nM. For the same molecule, the “Metabolic stability MLM % remaining in 30 min” value in series [1] stood at 55%. Also, in series [3], the “Metabolic stability HLM % remaining in 30 min” value worked out at 71%.

`CN(C)CCNC(=O)c1ccc(C2CC2NCC2CCN(CCCc3ccc(C(=O)NO)cc3)CC2)cc1` (stereo not drawn) [Example 55, N-(2-(dimethylamino)ethyl)-4-(2-(((1-(3-(4-(hydroxycarbamoyl)phenyl)propyl)piperidin-4-yl)methyl)amino)cyclopropyl)benzamide TFA Salt]: the IC50 at LSD1 came to 22 nM; in series [2], 130 nM. Besides, the “Metabolic stability MLM % remaining in 30 min” value in series [1] was 36%. Moreover, the “Metabolic stability HLM % remaining in 30 min” value in series [3] was 40%.

For `Cn1ccc(-c2ccc(C3CC3NCC3CCN(CCCc4ccc(C(=O)NO)cc4)CC3)cc2)cc1=O` (stereo not drawn) [Example 60, N-hydroxy-4-(3-(4-(((2-(4-(1-methyl-2-oxo-1,2-dihydropyridin-4-yl)phenyl)cyclopropyl)amino)methyl)piperidin-1-yl)propyl)benzamide TFA Salt], the IC50 on LSD1 was 21 nM; in series [2] it was 46 nM. In series [1], the “Metabolic stability MLM % remaining in 30 min” value amounted to 72%. Besides, the “Metabolic stability HLM % remaining in 30 min” value in series [3] is given as 73%.

As to `O=C(NO)c1ccc(CCCN2CCC(CNC3CC3c3ccc(-c4ccc(C(F)(F)F)nc4)cc3)CC2)cc1` (stereo not drawn) [Example 66, N-hydroxy-4-(3-(4-(((2-(4-(6-(trifluoromethyl)pyridin-3-yl)phenyl)cyclopropyl)amino)methyl)piperidin-1-yl)propyl)benzamide TFA Salt], the IC50 on LSD1 worked out at 19 nM; in series [2], 100 nM. In series [1], the “Metabolic stability MLM % remaining in 30 min” value is 85%. Further, the “Metabolic stability HLM % remaining in 30 min” value in series [3] amounted to 79%.

Consider `O=C(NO)c1ccc(CCCn2cc(CNC3CC3c3ccccc3)nn2)cc1` (stereo not drawn) [Example 77, N-hydroxy-4-(3-(4-(((2-phenylcyclopropyl)amino)methyl)-1H-1,2,3-triazol-1-yl)propyl)benzamide TFA Salt], for which the concentration giving a half-maximal response (EC50) in the series on MM1S (MM1S cells) stood at 70 nM. In addition, the results for the IC50 (on LSD1; in series [2]) were 65 nM and 71 nM, respectively.

As for `O=C(NO)c1ccc(S(=O)(=O)N2CCC(CNC3CC3c3ccccc3)CC2)cc1` (stereo not drawn) [Example 85, N-hydroxy-4-((4-(((2-phenylcyclopropyl)amino)methyl)piperidin-1-yl)sulfonyl)benzamide TFA Salt], the EC50 in the series on MM1S (MM1S cells) was greater than 10000 nM. Besides, the IC50 came out at 62 nM at LSD1 and 575 nM in series [2].

On to `O=C(NO)c1ccc(S(=O)(=O)NCCN2CCC(CNC3CC3c3ccc(F)cc3)CC2)cc1` (stereo not drawn) [Example 87, 4-(N-(2-(4-(((2-(4-fluorophenyl)cyclopropyl)amino)methyl)piperidin-1-yl)ethyl)sulfamoyl)-N-hydroxybenzamide TFA Salt], for which the EC50 with MM1S (MM1S cells) amounted to 9110 nM. The results for the 50% inhibitory concentration (IC50) (on LSD1; in series [2]) were 25 nM and 1060 nM, respectively.

In the case of `O=C(NO)c1ccc(C(=O)NCCN2CCC(CNC3CC3c3ccccc3)CC2)cc1` (stereo not drawn) [Example 89, N-hydroxy-N4-(2-(4-(((2-phenylcyclopropyl)amino)methyl)piperidin-1-yl)ethyl)terephthalamide TFA Salt], in the series on MM1S (MM1S cells), the EC50 amounted to 311 nM. Moreover, the IC50 at LSD1 turned out to be 20 nM; in series [2] it was 720 nM.

`O=C(NO)c1ccc(CCCC2CCN(C(=O)CNC3CC3c3ccccc3)CC2)cc1` (stereo not drawn) [Example 93, N-hydroxy-4-(3-(1-(2-((2-phenylcyclopropyl)amino)acetyl)piperidin-4-yl)propyl)benzamide TFA Salt]: in the series with MM1S (MM1S cells), the EC50 came out at 1040 nM. The values for the IC50 (on LSD1; in series [2]) were 72 nM and 187 nM, respectively.

Turning to `O=C(NO)c1ccc(OCCN2CCC(CNC3CC3c3ccccc3)CC2)nc1` (stereo not drawn) [Example 97, N-hydroxy-6-(2-(4-(((2-phenylcyclopropyl)amino)methyl)piperidin-1-yl)ethoxy)nicotinamide TFA Salt], in the series with MM1S (MM1S cells), the concentration giving a half-maximal response (EC50) is greater than 10000 nM. The IC50 was 33 nM on LSD1 and greater than 10000 nM in series [2].

On to `O=C(NO)c1ccc(OCCN2CCC(CNC3CC3c3ccc(-c4ccc(F)cc4)cc3)CC2)nc1` (stereo not drawn) [Example 98, 6-(2-(4-(((2-(4′-fluoro-[1,1′-biphenyl]-4-yl)cyclopropyl)amino)methyl)piperidin-1-yl)ethoxy)-N-hydroxynicotinamide TFA Salt], for which the EC50 in the series with MM1S (MM1S cells) was greater than 10000 nM. Besides, the IC50 at LSD1 turned out to be 37 nM; in series [2], 5960 nM.

Regarding `O=C(NO)c1ccc2c(c1)CN(C(=O)CCCN1CCC(CNC3CC3c3ccccc3)CC1)C2` (stereo not drawn) [Example 109, N-hydroxy-2-(4-(4-(((2-phenylcyclopropyl)amino)methyl)piperidin-1-yl)butanoyl)isoindoline-5-carboxamide TFA Salt], in the series on MM1S (MM1S cells), the EC50 is 1100 nM. For the same molecule, the 50% inhibitory concentration (IC50) at LSD1 was found to be 24 nM; in series [2], 107 nM.

Take `O=C(NO)c1cnc(CCCN2CCC(CNC3CC3c3ccccc3)CC2)s1` (stereo not drawn) [Example 112, N-hydroxy-2-(3-(4-(((2-phenylcyclopropyl)amino)methyl)piperidin-1-yl)propyl)thiazole-5-carboxamide TFA Salt]: the half-maximal effective concentration (EC50) with MM1S (MM1S cells) was 63 nM. For the same molecule, the values for the IC50 (on LSD1; in series [2]) were 22 nM and 517 nM, respectively.

As to `CC(C)n1cc(C2CC2NCC2CCN(CCCc3ccc(C(=O)Nc4ccccc4N)cc3)CC2)cn1` (stereo not drawn) [Example 128, N-(2-aminophenyl)-4-(3-(4-(((2-(1-isopropyl-1H-pyrazol-4-yl)cyclopropyl)amino)methyl)piperidin-1-yl)propyl)benzamide TFA Salt], in the series on MM1S (MM1S cells), the concentration for a half-maximal effect (EC50) was determined as 70 nM. For the same molecule, the IC50 at LSD1 was 128 nM; in series [2], greater than 10000 nM.

For the molecule `Nc1ccccc1NC(=O)c1ccc(CCC(=O)N2CCC(NC3CC3c3ccccc3)CC2)cc1` (stereo not drawn) [Example 133, N-(2-aminophenyl)-4-(3-oxo-3-(4-((2-phenylcyclopropyl)amino)piperidin-1-yl)propyl)benzamide TFA Salt], the IC50 at LSD1 is 40 nM; in series [2], greater than 10000 nM. Besides, the “Metabolic stability MLM % remaining in 30 min” value in series [1] was found to be 9%. For the same molecule, in series [3], the “Metabolic stability HLM % remaining in 30 min” value turned out to be 19%.

Regarding `Nc1ccccc1NC(=O)c1ccc(CCCn2cc(CNC3CC3c3ccccc3)nn2)cc1` (stereo not drawn) [Example 137, N-(2-aminophenyl)-4-(3-(4-(((2-phenylcyclopropyl)amino)methyl)-1H-1,2,3-triazol-1-yl)propyl)benzamide TFA Salt], in the series on MM1S (MM1S cells), the EC50 worked out at 126 nM. Besides, the 50% inhibitory concentration (IC50) at LSD1 was 139 nM; in series [2] it was greater than 10000 nM.

Turning to `Nc1ccccc1NC(=O)c1ccc(CCCn2cc(CNC3CC3c3ccccc3)cn2)cc1` (stereo not drawn) [Example 138, N-(2-aminophenyl)-4-(3-(4-(((2-phenylcyclopropyl)amino)methyl)-1H-pyrazol-1-yl)propyl)benzamide TFA Salt], the EC50 in the series on MM1S (MM1S cells) is 65 nM. Moreover, the IC50 on LSD1 was 99 nM; in series [2], greater than 10000 nM.

Consider `Nc1ccccc1NC(=O)c1ccc(Cn2cc(CNC3CC3c3ccccc3)cn2)cc1` (stereo not drawn) [Example 145, N-(2-aminophenyl)-4-((4-(((2-phenylcyclopropyl)amino)methyl)-1H-pyrazol-1-yl)methyl)benzamide TFA Salt], for which, in the series on MM1S (MM1S cells), the EC50 is 123 nM. Moreover, the IC50 is 61 nM on LSD1 and greater than 10000 nM in series [2].

For `Nc1ccccc1NC(=O)c1ccc(Cn2cc(CNC3CC3c3ccccc3)nn2)cc1` (stereo not drawn) [Example 146, N-(2-aminophenyl)-4-((4-(((2-phenylcyclopropyl)amino)methyl)-1H-1,2,3-triazol-1-yl)methyl)benzamide TFA Salt], the EC50 in the series on MM1S (MM1S cells) was 106 nM. For the same molecule, the IC50 on LSD1 was 69 nM; in series [2] it was greater than 10000 nM.

For the molecule `Nc1ccccc1NC(=O)c1ccc(OCCN2CCC(CNC3CC3c3ccc(F)cc3)CC2)nc1` (stereo not drawn) [Example 149, N-(2-aminophenyl)-6-(2-(4-(((2-(4-fluorophenyl)cyclopropyl)amino)methyl)piperidin-1-yl)ethoxy)nicotinamide TFA Salt], in the series on MM1S (MM1S cells), the EC50 was greater than 10000 nM. The IC50 was 21 nM at LSD1 and greater than 10000 nM in series [2].

Turning to `Nc1ccccc1NC(=O)c1coc(CCCN2CCC(CNC3CC3c3ccccc3)CC2)n1` (stereo not drawn) [Example 153, N-(2-aminophenyl)-2-(3-(4-(((2-phenylcyclopropyl)amino)methyl)piperidin-1-yl)propyl)oxazole-4-carboxamide TFA Salt], the EC50 in the series on MM1S (MM1S cells) is 571 nM. The IC50 at LSD1 was 24 nM; in series [2], greater than 10000 nM.

In the case of `Nc1ccccc1NC(=O)c1ccc(S(=O)(=O)N2CCC(CNC3CC3c3ccccc3)CC2)cc1` (stereo not drawn) [Example 160, N-(2-aminophenyl)-4-((4-(((2-phenylcyclopropyl)amino)methyl)piperidin-1-yl)sulfonyl)benzamide TFA Salt], the EC50 with MM1S (MM1S cells) was 178 nM. Also, the IC50 was 43 nM at LSD1 and greater than 10000 nM in series [2].

Source of the values: US11352322B2, “Cyclopropyl-amide compounds as dual LSD1/HDAC inhibitors” (Jubilant Epicore LLC, priority 2016, dated 2022).
